Data taken from EP0137439A2, “Antitumour agent” (Henkel Kommanditgesellschaft auf Aktien, priority 1983, dated 1985).

System: Tumorart P 388 (Leukämie)
Assay: P 388 leukemia survival test in mice, NCI protocol 1200
Type: in vivo, Mäusen
Conditions: P 388 i.p. in mice; for T/C-Wert: aqueous 1% injection solution, rate of survival prolongation vs untreated animals; for 30 Tage überlebende Tiere (von 6): animals out of 6 alive at 30 days
Text: Epoxid-0: gef. 18,94 %, ber. 18,82 % Die nachfolgenden Versuche wurden durchgeführt nach Testvorschriften des National Cancer Institute Bethesda, Maryland 200014, veröffentlicht in "Cancer Chemotherapy Reports" Part. 3, September 1972, Vol. 3, Nr. 2. Als Wirksubstanz wurde 1,2-Diglycidyl-4-diglycidylamino- urazol des vorstehenden Beispiels 1 verwendet. Die Substanz wurde als wäßrige, 1%ige In jektions lösung unmittelbar vor der Applikation frisch hergestellt.
Bei Mäusen wurde gemäß Protokoll 1200 (S. 91c) die Tumorart P 388 (Leukämie) i.p. mit […] gesetzt. Die mittlere Uberlebensdauer der unbehandelten Tiere wird bestimmt.
In weiteren Versuchsgruppen wird entsprechend vorbehandelten Tieren der Wirkstoff applizi-ert. Es wird eine signifikante Verlängerung der Lebensdauer der behandelten Testtiere gegenüber der mittleren Überlebensdauer der nicht mit dem Wirkstoff behandelten Tiere erzielt. Die Verlängerungsrate T/C in Abhängigkeit von der Dosierung des Wirkstoffes ist in der folgenden Tabelle zusammengestellt: […]

Structure (SMILES) | T/C-Wert (dose 25 mg/kg) | 30 Tage überlebende Tiere (von 6) (dose 50 mg/kg) | T/C-Wert (dose 50 mg/kg) | 30 Tage überlebende Tiere (von 6) (dose 6,25 mg/kg) | T/C-Wert (dose 6,25 mg/kg) | T/C-Wert (dose 12,5 mg/kg) | 30 Tage überlebende Tiere (von 6) (dose 25 mg/kg)
O=c1n(N(CC2CO2)CC2CO2)c(=O)n(CC2CO2)n1CC1CO1 (stereo not drawn) [1,2-Diglycidyl-4-diglycidyl-aminourazol, 1,2-Diglycidyl-4-diglycidylamino-urazol] | 155 | 6 | >300 | 3 | 291 | 142 | –
O=c1n(CC2CO2)c(=O)n(CC2CO2)n1CC1CO1 (stereo not drawn) [Triglycidylurazol] | 260 | 6 | 300 | – | 180 | 230 | 4
